Reference: patent US10774069B2, “Crystalline forms of a lysyl oxidase-like 2 inhibitor and methods of making” (PHARMAKEA, INC., priority 2016, dated 2020)
“Also recorded” adds a separate entry of the source. Where a name gives a salt, the structure may show the parent alone. Read-outs that look alike come from different tables or passages of the source.

Legend:
[1] = Solid form storage stability at elevated temperature/humidity; format: physicochemical
Experimental: All retrieved solids from the crystallisation attempts were stored at 40° C. and 75% RH.

[2] = as above; format: physicochemical; remark: listed apart in the source
[3] = Experimental: After each addition of solvent, the system was shaken gently for 10 minutes at 50° C. and then allowed to stand at room temperature for 5 min before the addition of a new aliquot of solvent. After the assessment was completed, any suspensions obtained were matured and clear solutions were cooled at 5° C.
Supernatants from maturation were allowed to slowly evaporate at ambient conditions.

physchem = details: 25 °C, water, thermodynamic from solid
LOXL2 [4] = molecular target: T1, LOXL2 (Homo sapiens (Human), UniProt Q9Y4K0); assay: In vitro assays, potency of enantiomers; format: biochemical
T1 sequence (Q9Y4K0 26-774): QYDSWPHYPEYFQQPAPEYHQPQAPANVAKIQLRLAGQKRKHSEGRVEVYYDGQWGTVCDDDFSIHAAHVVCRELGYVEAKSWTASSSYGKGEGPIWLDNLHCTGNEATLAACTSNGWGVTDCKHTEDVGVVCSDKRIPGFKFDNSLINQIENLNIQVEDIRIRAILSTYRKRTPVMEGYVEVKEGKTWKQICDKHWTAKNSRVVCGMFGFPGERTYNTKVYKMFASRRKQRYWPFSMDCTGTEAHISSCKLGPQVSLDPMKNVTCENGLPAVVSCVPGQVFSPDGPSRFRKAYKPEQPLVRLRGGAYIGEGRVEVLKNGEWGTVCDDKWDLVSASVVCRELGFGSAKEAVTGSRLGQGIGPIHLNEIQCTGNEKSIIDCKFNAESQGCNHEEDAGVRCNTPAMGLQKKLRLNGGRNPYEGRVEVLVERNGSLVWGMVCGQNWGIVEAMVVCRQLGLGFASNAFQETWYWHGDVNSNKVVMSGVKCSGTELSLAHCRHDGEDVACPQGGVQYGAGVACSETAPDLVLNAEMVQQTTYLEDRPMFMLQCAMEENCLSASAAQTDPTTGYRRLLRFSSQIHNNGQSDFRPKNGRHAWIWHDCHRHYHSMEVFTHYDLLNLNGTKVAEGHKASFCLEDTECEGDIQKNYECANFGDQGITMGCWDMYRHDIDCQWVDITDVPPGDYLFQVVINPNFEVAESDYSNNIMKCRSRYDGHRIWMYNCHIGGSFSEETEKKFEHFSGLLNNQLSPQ

[5] = Preliminary free base solubility assessment of Compound I; format: physicochemical; details: organic solvent or mixture, thermodynamic from solid
Experimental: After each addition of solvent, the system was shaken at 50° C. for 10 min and then allowed to stand at room temperature for 5 min before the addition of a new aliquot of solvent.

[6] = Stability studies (accelerated and ICH); format: physicochemical
Experimental: The compounds were assayed according to appearance, purity, related Substances, chiral purity, moisture, DSC, and XRPD

LOXL2 [7] = molecular target: T1, LOXL2; assay: Human LOXL2 CCM Assay (Amplex Red amine oxidase activity); format: biochemical; details: concentrated conditioned media from CHO cells expressing human LOXL2; 2 h at 37° C.
Experimental: Human LOXL2/CHO and human LOX/HEK stable cell lines were cultured under normal growth conditions in 15 cm tissue culture plates until cells were ˜80% confluent. Cells were then washed with PBS before the addition of 25-30 mL serum-free media (Phenol red-free DMEM/F12 mix w/glutamax containing pen/strep, 10-100 μM CuCl2±0.1% BSA). Cells were incubated at 37° C., 5% CO2 in serum-free media for 40-48 hours before the conditioned media was removed and centrifuged at 2000 rpm for 5 min at 4° C. to pellet cells/debris. The media was concentrated 10-20× using 10-30 MWCO centriprep columns according to the manufacturer's instructions (EMD Millipore, Billerica, Mass.) before aliquoting and storing at −80° C.
LOXL2 amine oxidase activity was evaluated by measuring Amplex Red fluorescence using 10-20× concentrated conditioned media (non BSA-containing) from CHO cells stably expressing human LOXL2. […] After the 2 h incubation, 5 μL of 10 mM 1,5-Diaminopentane (DAP) diluted in Assay Buffer and 10 μL of Amplex Red Mix (8.5 μL Assay Buffer+0.5 μL of 10 mM Amplex Red+1 μL of 500 U/ml Horseradish Peroxidase) were added and the plate mixed and immediately placed on the FlexStation for fluorescence measurements. Fluorescence was read in kinetic mode every 2 min for 0.5-1 hour at excitation=544 and emission=590. The amine oxidase activity was calculated from the slope of the linear portion of the curve. […]

Forced degradation study = format: physicochemical
[8] = Clear point / cloud point in IPA:water (Crystal 16); format: physicochemical; details: mixture of Forms 1 and 4
Experimental: The samples were then cooled from 70 back to −8° C. at the same rate. The clear point upon heating (at 100% transmission) and the cloud point upon re-cooling (<100% transmission) were recorded using the Crystal 16 instrument and the data is shown in Table 17. XRPD analysis was performed on all solids obtained post cooling.

[9] = Aqueous and organic solubility of Form 1 of Compound 2; format: physicochemical
[10] = Gravimetric Vapor Sorption (GVS); format: physicochemical; details: 0 to 90% RH
Text: Gravimetric Vapor Sorption (GVS) isotherms were obtained using an SMS DVS Intrinsic moisture sorption analyser, controlled by DVS Intrinsic Control software v1.0.1.2 (or v 1.0.1.3), over a range of 0 to 90% relative humidity (RH).

Question: Which “XRPD change on heating and storage” value ([1]; heating to 130° C. and upon the storage conditions) does the source give for `CS(=O)(=O)O.NCc1cc(Oc2cccc(C(=O)N3C[C@@H](O)[C@H](F)C3)c2)nc(C(F)(F)F)c1` [Form 3 of Compound 2] here?
Answer: changed to Form 1

Question: Which results are given for `Cl.NCc1cc(Oc2cccc(C(=O)N3C[C@@H](O)[C@H](F)C3)c2)nc(C(F)(F)F)c1` [Form 1 of Compound 1]?
Answer: Hygroscopicity [2]: hygroscopic solid; also recorded: hygroscopic form; Solubility in maturation solvents [3]: insoluble; Behaviour on storage ([1]; 40° C. and 75% RH, after 24 hours): deliquescing; Form change on storage ([1]; 40° C./75% RH for one week): transforms to Form 2; 7 days storage @ 40° C./75% RH, appearance ([1]; 40° C./75% RH): Waxy/glassy solid +; 7 days storage @ 40° C./75% RH, resulting XRPD form ([1]; 40° C./75% RH): particles - Form 2; solubility (physchem): ≥ 1000 mg/mL

Question: Which “Form change on storage” value ([2]; 7 days at 25° C./97% RH) does the source give for `CS(=O)(=O)O.NCc1cc(Oc2cccc(C(=O)N3C[C@@H](O)[C@H](F)C3)c2)nc(C(F)(F)F)c1` [Form 2 of Compound 2] here?
Answer: change also occurs

Question: And the “Form change after GVS and storage” value ([1]; after GVS analysis and 7 days at 40° C./75% RH)?
Answer: phase transformation towards Form 1

Question: And the “Form conversion in humidity” value ([1]; in humidity)?
Answer: converts to Form 1

Question: For `NCc1cc(Oc2cccc(C(=O)N3C[C@@H](O)[C@H](F)C3)c2)nc(C(F)(F)F)c1` [Compound I, (R,R)-trans-(3-((4-(aminomethyl)-6-(trifluoromethyl)pyridin-2-yl)oxy)phenyl)(3-fluoro-4-hydroxypyrrolidin-1-yl)methanone], which “Potency relative to the (S,S)-isomer” value (LOXL2 [4]) is on record?
Answer: less than 2 fold

Question: What about the solubility at 10 min ([5]; 2-Propanol) of the same compound?
Answer: > 100 mg/mL

Question: What about the solubility at 10 min ([5]; Acetonitrile) of the same compound?
Answer: > 100 mg/mL

Question: What about the solubility at 10 min ([5]; Dichloromethane) of the same compound?
Answer: > 100 mg/mL

Question: What about the solubility at 10 min ([5]; Ethanol) of the same compound?
Answer: > 100 mg/mL

Question: And the solubility at 10 min ([5]; Ethyl Acetate)?
Answer: > 100 mg/mL

Question: What about the solubility at 10 min ([5]; Hexane) of the same compound?
Answer: > 100 mg/mL

Question: What about the solubility at 10 min ([5]; Tetrahydrofuran) of the same compound?
Answer: > 100 mg/mL

Question: And the solubility at 10 min ([5]; Toluene, up to 50 vol)?
Answer: > 20 mg/mL

Question: Which “Changes in purity or absorption of moisture” value ([6]; 3 month accelerated condition (40° C./75% RH)) does the source give for `Cl.NCc1cc(Oc2cccc(C(=O)N3C[C@@H](O)[C@H](F)C3)c2)nc(C(F)(F)F)c1` [Compound 1, (R,R)-trans-(3-((4-(aminomethyl)-6-(trifluoromethyl)pyridin-2-yl)oxy)phenyl)(3-fluoro-4-hydroxypyrrolidin-1-yl)methanone, hydrochloride salt] here?
Answer: no significant changes

Question: And the IC50 (LOXL2 [7])?
Answer: < 0.3 µM

Question: For `NCc1cc(Oc2cccc(C(=O)N3C[C@@H](O)[C@H](F)C3)c2)nc(C(F)(F)F)c1` [Compound 2, (R,R)-trans-(3-((4-(aminomethyl)-6-(trifluoromethyl)pyridin-2-yl)oxy)phenyl)(3-fluoro-4-hydroxypyrrolidin-1-yl)methanone, methanesulfonate salt], which “All attributes tested (appearance, purity, related substances, chiral purity, moisture, DSC, XRPD)” value ([6]; 1 month data, long-term and accelerated conditions of 1-year and 2-year ICH studies) is on record?
Answer: within limits

Question: What about the “Solid state stability, heat” value (Forced degradation study; solid, 100° C., 24 hours) of the same compound?
Answer: stable

Question: What about the “Solid state stability, light” value (Forced degradation study; solid, light max 365 nm, 24 hours) of the same compound?
Answer: stable

Question: What about the “Solution state stability, heat” value (Forced degradation study; solution, 50° C. for 24 hours) of the same compound?
Answer: stable

Question: What about the “Clear Point Temperature” value ([8]; 5 mg in 1 mL IPA:water 95:5) of the same compound?
Answer: 6.9 °C

Question: And the “Clear Point Temperature” value ([8]; 10 mg in 1 mL IPA:water 95:5)?
Answer: 20.3 °C

Question: What about the “Clear Point Temperature” value ([8]; 20 mg in 1 mL IPA:water 95:5) of the same compound?
Answer: 37.2 °C

Question: And the “Clear Point Temperature” value ([8]; 30 mg in 1 mL IPA:water 95:5)?
Answer: 48.5 °C

Question: And the “Cloud Point Temperature” value ([8]; 30 mg in 1 mL IPA:water 95:5)?
Answer: −7.8 °C

Question: What about the “Clear Point Temperature” value ([8]; 40 mg in 1 mL IPA:water 95:5) of the same compound?
Answer: 55.8 °C

Question: What about the “Cloud Point Temperature” value ([8]; 40 mg in 1 mL IPA:water 95:5) of the same compound?
Answer: −1.8 °C

Question: And the “Clear Point Temperature” value ([8]; 60 mg in 1 mL IPA:water 95:5)?
Answer: 64 °C

Question: What about the “Cloud Point Temperature” value ([8]; 60 mg in 1 mL IPA:water 95:5) of the same compound?
Answer: 14.5 °C

Question: What about the “Clear Point Temperature” value ([8]; 70 mg in 1 mL IPA:water 95:5) of the same compound?
Answer: 68.6 °C

Question: And the “Cloud Point Temperature” value ([8]; 70 mg in 1 mL IPA:water 95:5)?
Answer: 24.7 °C

Question: Which solubility [3] does the source give for `Cl.NCc1cc(Oc2cccc(C(=O)N3C[C@@H](O)[C@H](F)C3)c2)nc(C(F)(F)F)c1` [Amorphous Compound 1] here?
Answer: 200 − 100

Question: And the “Behaviour at 40° C./75% RH” value ([1]; 40° C./75% RH)?
Answer: deliquesces

Question: And the “7 days storage @ 40° C./75% RH, appearance” value ([1]; 40° C./75% RH)?
Answer: Glassy material

Question: For `Cl.NCc1cc(Oc2cccc(C(=O)N3C[C@@H](O)[C@H](F)C3)c2)nc(C(F)(F)F)c1` [Form 2 of Compound 1], which “Thermal stability” value [2] is on record?
Answer: thermally stable

Question: And the “7 days storage @ 40° C./75% RH, appearance” value ([1]; 40° C./75% RH)?
Answer: Waxy/glassy solid +

Question: What about the “7 days storage @ 40° C./75% RH, resulting XRPD form” value ([1]; 40° C./75% RH) of the same compound?
Answer: particles - Form 2

Question: And the “Physical change over time” value ([1]; over time)?
Answer: converts over time to a waxy solid

Question: What about the Behaviour on storage ([1]; storage conditions (40° C. and 75% RH) for 1 week) of the same compound?
Answer: remained unchanged

Question: For `CS(=O)(=O)O.NCc1cc(Oc2cccc(C(=O)N3C[C@@H](O)[C@H](F)C3)c2)nc(C(F)(F)F)c1` [Form 1 of Compound 2], which solubility ([9]; aqueous medium, pH 2, aqueous buffer, read-out: Aqueous Solubility) is on record?
Answer: > 107 mg/mL

Question: And the solubility ([9]; aqueous medium, pH 7.4, aqueous buffer, read-out: Aqueous Solubility)?
Answer: > 107 mg/mL

Question: What about the solubility ([9]; aqueous medium, pH 10, aqueous buffer, read-out: Aqueous Solubility) of the same compound?
Answer: > 85 mg/mL

Question: What about the solubility ([9]; ethanol, organic solvent or mixture, EtOH, read-out: Organic Solubility, Qualitative Solubility) of the same compound?
Answer: ~15 mg/mL

Question: What about the solubility ([9]; ethanol/water (90:10), isopropanol/water (90:10), organic solvent or mixture, read-out: Organic Solubility, Qualitative Solubility) of the same compound?
Answer: ~50 mg/mL

Question: What about the solubility ([9]; methanol, tetrahydrofuran/water (90:10), organic solvent or mixture, read-out: Organic Solubility, Qualitative Solubility) of the same compound?
Answer: ~100 mg/mL

Question: And the solubility ([9]; organic solvent or mixture, isopropyl acetate, isopropanol, methyl-ethyl ketone, acetone, ethanol, methyl-t-butyl ether, 1,4 dioxane, toluene, tetrahydrofuran, dichloromethane, acetonitrile, read-out: Organic Solubility, Qualitative Solubility)?
Answer: ≤ 10 mg/mL

Question: And the solubility ([9]; water, dimethyl sulfoxide, read-out: Organic Solubility, Qualitative Solubility)?
Answer: > 200 mg/mL

Question: What about the “Polymorph stability on storage” value ([1]; 7 days at 40° C./75% RH and 25° C./97% RH) of the same compound?
Answer: Form 1, which is stable for 7 days at 40° C./75% RH and 25° C./97%

Question: And the “XRPD after the GVS analysis” value [10]?
Answer: X-ray powder diffraction (XRPD): Unchanged
